Assays:
CCRF-CEM = experiment: Cytotoxicity SRB assay, CCRF-CEM; type: cell-based, human; conditions: Leukemia CCRF-CEM, 48 h exposure
Procedure: (§1) 5a, 5c and 5d was evaluated for in vitro anticancer activity against sixty human tumor cells derived from nine cancer types leukemia, non-small-cell lung, colon, CNS, melanoma, ovarian, prostate, and breast cancer) as shown in (Table 1 and 2). For the compound, dose response curves for each cell line were measured at a minimum of five concentrations at 10 fold dilutions. A protocol of 48 h continuous drug exposure was used and a sulforhodamine B (SRB) protein assay was used to estimate cell viability or growth. The concentration causing 50% cell growth inhibition (GI50), total cell growth inhibition (TGI 0% growth) and 50% cell death (LC50, −50% growth) compared with the control was calculated.

A498 = experiment: Cytotoxicity SRB assay, A498; type: cell-based, human; conditions: Renal A498, 48 h exposure
Procedure: as §1

CAKI-1 = experiment: Cytotoxicity SRB assay, CAKI-1; type: cell-based, human; conditions: Renal CAKI-1, 48 h exposure
Procedure: as §1

UACC-257 = experiment: Cytotoxicity SRB assay, UACC-257; type: cell-based, human; conditions: Melanoma UACC-257, 48 h exposure
Procedure: as §1

UO-31 = experiment: Cytotoxicity SRB assay, UO-31; type: cell-based, human; conditions: Renal UO-31, 48 h exposure
Procedure: as §1

NCI-H23 = experiment: Cytotoxicity SRB assay, NCI-H23; type: cell-based, human; conditions: Non-small cell lung NCI-H23, 48 h exposure
Procedure: as §1

ACHN = experiment: Cytotoxicity SRB assay, ACHN; type: cell-based, human; conditions: Renal ACHN, 48 h exposure
Procedure: as §1

NCI-H226 = experiment: Cytotoxicity SRB assay, NCI-H226; type: cell-based, human; conditions: Non-small cell lung NCI-H226, 48 h exposure
Procedure: as §1

MALME-3M = experiment: Cytotoxicity SRB assay, MALME-3M; type: cell-based, human; conditions: Melanoma MALME-3M, 48 h exposure
Procedure: as §1

HCT-15 = experiment: Cytotoxicity SRB assay, HCT-15; type: cell-based, human; conditions: Colon HCT-15, 48 h exposure
Procedure: as §1

NCI-H522 = experiment: Cytotoxicity SRB assay, NCI-H522; type: cell-based, human; conditions: Non-small cell lung NCI-H522, 48 h exposure
Procedure: as §1

RPMI-8226 = experiment: Cytotoxicity SRB assay, RPMI-8226; type: cell-based, human; conditions: Leukemia RPMI-8226, 48 h exposure
Procedure: as §1

[1] = test system: sixty human tumor cells derived from nine cancer types; experiment: NCI sixty human tumor cell line screen (SRB), all lines / mean graph midpoints; type: cell-based; conditions: for Log10 LC50 mean graph midpoint (MG_MID): 50% cell death; for Log10 LC50 mean graph midpoint (MG_MID) / Log10 GI50 mean graph midpoint (MG_MID) / Log10 TGI mean graph midpoint (MG_MID): human tumor cell lines, 48 h exposure, SRB; for Log10 TGI mean graph midpoint (MG_MID): total cell growth inhibition
Procedure: as §1
The mean graph mid points of log10 TGI and log10 LC50 have shown similar pattern to the log10 GI50 mean graph mid points.

NCI/ADR-RES = experiment: Cytotoxicity SRB assay, NCI/ADR-RES; type: cell-based, human; conditions: Breast NCI/ADR-RES, 48 h exposure
Procedure: as §1

MDA-MB-231/ATCC = experiment: Cytotoxicity SRB assay, MDA-MB-231/ATCC; type: cell-based, human; conditions: Breast MDA-MB-231/ATCC, 48 h exposure
Procedure: as §1

LOX IMVI = experiment: Cytotoxicity SRB assay, LOX IMVI; type: cell-based, human; conditions: Melanoma LOX IMVI, 48 h exposure
Procedure: as §1

TK-10 = experiment: Cytotoxicity SRB assay, TK-10; type: cell-based, human; conditions: Renal TK-10, 48 h exposure
Procedure: as §1

SF-539 = experiment: Cytotoxicity SRB assay, SF-539; type: cell-based, human; conditions: CNS SF-539, 48 h exposure
Procedure: as §1

HL-60 (TB) = experiment: Cytotoxicity SRB assay, HL-60 (TB); type: cell-based, human; conditions: Leukemia HL-60 (TB), 48 h exposure
Procedure: as §1

SW-620 = experiment: Cytotoxicity SRB assay, SW-620; type: cell-based, human; conditions: Colon SW-620, 48 h exposure
Procedure: as §1

M14 = experiment: Cytotoxicity SRB assay, M14; type: cell-based, human; conditions: Melanoma M14, 48 h exposure
Procedure: as §1

SK-MEL-5 = experiment: Cytotoxicity SRB assay, SK-MEL-5; type: cell-based, human; conditions: Melanoma SK-MEL-5, 48 h exposure
Procedure: as §1

OVCAR-3 = experiment: Cytotoxicity SRB assay, OVCAR-3; type: cell-based, human; conditions: Ovarian OVCAR-3, 48 h exposure
Procedure: as §1

UACC-62 = experiment: Cytotoxicity SRB assay, UACC-62; type: cell-based, human; conditions: Melanoma UACC-62, 48 h exposure
Procedure: as §1

HCT-116 = experiment: Cytotoxicity SRB assay, HCT-116; type: cell-based, human; conditions: Colon HCT-116, 48 h exposure
Procedure: as §1

U251 = experiment: Cytotoxicity SRB assay, U251; type: cell-based, human; conditions: CNS U251, 48 h exposure
Procedure: as §1

[2] = test system: duplex-form calf thymus DNA (CT-DNA); experiment: Thermal denaturation studies with calf thymus DNA; type: binding; conditions: for Change of DNA melting (ΔTm) over incubation time: 0 hr, 18 hr and 36 hr at 37° C.; for ΔTμ (° C.) after incubation at 37° C. for 0 h / ΔTμ (° C.) after incubation at 37° C. for 18 h: [PBD]:[DNA] molar ratio 1:5, CT-DNA 100 μM, ligand 20 μM, pH 7.00
Procedure: Compounds were subjected to thermal denaturation studies with duplex-form calf thymus DNA (CT-DNA) using an adaptation of a reported procedure. Working solutions in aqueous buffer (10 mM NaH2PO4/Na2HPO4, 1 mM Na2EDTA, pH 7.00+0.01) containing CT-DNA (100 μm in phosphate) and the PBD (20 μm) were prepared by addition of concentrated PBD solutions in DMSO to obtain a fixed [PBD]/[DNA] molar ratio of 1:5. The DNA-PBD solutions were incubated at 37° C. for 0, 18, and 36 h prior to analysis. Samples were monitored at 260 nm using a Beckman DU-7400 spectrophotometer fitted with high performance temperature controller, and heating was applied at 1° C. min^−1 in the 40-90° C. range. DNA helix coil transition temperatures (Tm) were obtained from the maxima in the (dA260)/dT derivative plots. Results are given as the mean±standard deviation from three determinations and are corrected for the effects of DMSO co-solvent using a linear correction term. Drug-induced alterations in DNA melting behaviour are given by: ΔTm=Tm(DNA+PBD)−Tm (DNA alone), where the Tm value for the PBD-free CT-DNA is 69.0±0.01.
The DNA binding activity for these novel C8-linked quinazoline-PBD hybrids has been examined by thermal denaturation studies using calf thymus (CT) DNA. […] Data for 5a-d and DC-81 are included in Table 4 for comparison.

786-0 = experiment: Cytotoxicity SRB assay, 786-0; type: cell-based, human; conditions: Renal 786-0, 48 h exposure
Procedure: as §1

Row | Structure (SMILES) | GI50 (CCRF-CEM) [µM] | GI50 (A498) [µM] | GI50 (CAKI-1) [µM] | GI50 (UACC-257) [µM] | GI50 (UO-31) [µM] | GI50 (NCI-H23) [µM] | GI50 (ACHN) [µM] | GI50 (NCI-H226) [µM] | GI50 (MALME-3M) [µM] | GI50 (HCT-15) [µM] | GI50 (NCI-H522) [µM] | GI50 (RPMI-8226) [µM] | Log10 LC50 mean graph midpoint (MG_MID) [1] | Log10 GI50 mean graph midpoint (MG_MID) [1] | Log10 TGI mean graph midpoint (MG_MID) [1] | GI50 (NCI/ADR-RES) [µM] | GI50 (MDA-MB-231/ATCC) [µM] | GI50 (LOX IMVI) [µM] | ΔTμ (° C.) after incubation at 37° C. for 0 h [2] [°C] | ΔTμ (° C.) after incubation at 37° C. for 18 h [2] [°C] | further results
1 | COc1cc2c(cc1OCCCN1CCN(c3ncnc4ccccc34)CC1)N=C[C@@H]1CCCN1C2=O [Compound 5a] | 12 | 16.1 | 13.6 | 70.9 | 13.2 | 13.9 | 43.4 | 10 | 18.2 | 27.5 | 10.4 | 10 | −4.99 | −7.68 | −6.66 | 13.4 | 11.6 | 10 | 9.2 | 10.4 | GI50 ([1]; sixty cell lines in nine cell panels, read-out: GI50 against sixty cell lines in nine cell panels): < 20 nM; GI50 (TK-10): 16.6 µM; GI50 (SF-539): 12.6 µM; GI50 (HL-60 (TB)): 13 µM; GI50 (SW-620): 11.7 µM; GI50 (M14): 10.1 µM; GI50 (SK-MEL-5): 10 µM; GI50 (OVCAR-3): 10 µM; GI50 (UACC-62): 10 µM; GI50 (HCT-116): 11.9 µM; GI50 (U251): 10 µM; Change of DNA melting (ΔTm) over incubation time [2]: gradually increased; GI50 (786-0): 11.8 µM
2 | COc1cc2c(cc1OCCCCCCN1CCN(c3ncnc4ccccc34)CC1)N=C[C@@H]1CCCN1C2=O [Compound 5d] | 13.4 | 22 | 12.9 | 15.9 | 15.2 | 22.5 | 46.1 | 18.4 | 36.2 | 18.4 | 18.3 | 16.8 | −4.96 | −6.49 | −5.85 | 18.7 | 14.2 | 15 | 10.6 | 12.2 | GI50 (TK-10): 31.4 µM; GI50 (SF-539): 33.7 µM; GI50 (HL-60 (TB)): 19.5 µM; GI50 (SW-620): 25.9 µM; GI50 (M14): 18.8 µM; GI50 (SK-MEL-5): 23.3 µM; GI50 (OVCAR-3): 26.3 µM; GI50 (UACC-62): 22.5 µM; GI50 (HCT-116): 14.6 µM; GI50 (U251): 19.8 µM; Change of DNA melting (ΔTm) over incubation time [2]: gradually increased; GI50 (786-0): 14.9 µM
3 | COc1cc2c(cc1O)N=CC1CCCN1C2=O (centres unmarked) [DC-81, reference compound] |  |  |  |  |  |  |  |  |  |  |  |  |  |  |  |  |  |  | 0.3 | 0.7 | 
4 | COc1cc2c(cc1OCCCCN1CCN(c3ncnc4ccccc34)CC1)N=C[C@@H]1CCCN1C2=O [Compound 5b] |  |  |  |  |  |  |  |  |  |  |  |  |  |  |  |  |  |  | 9.7 | 10.9 | 
5 | COc1cc2c(cc1OCCCCCN1CCN(c3ncnc4ccccc34)CC1)N=C[C@@H]1CCCN1C2=O [Compound 5c] | 32.5 | 20.1 | 25.8 | 22.9 | 22.1 | 15.8 | 22 | 17.8 | 24.2 | 29.7 | 65.3 | 45 | −4.19 | −5.68 | −4.86 | 17.7 | 19.9 | 18.2 | 10.3 | 11.8 | GI50 (TK-10): 38.2 µM; GI50 (SF-539): 30.3 µM; GI50 (HL-60 (TB)): 65.2 µM; GI50 (SW-620): 17.6 µM; GI50 (M14): 14.5 µM; GI50 (SK-MEL-5): 20.9 µM; GI50 (OVCAR-3): 24.9 µM; GI50 (UACC-62): 15.1 µM; GI50 (HCT-116): 21 µM; GI50 (U251): 15.8 µM; Change of DNA melting (ΔTm) over incubation time [2]: gradually increased; GI50 (786-0): 18.4 µM

From patent US8153627B2, “Quinazoline linked pyrrolo[2,1-C][1, 4]benzodiazepine hybrids as potential anticancer agents and process for the preparation thereof” (Council of Scientific & Industrial Research, priority 2008, dated 2012)
